A value given as a limit tells only on which side of the number the result lay.

Among the data in patent US10954232B2, “Pyrazole derivative as ALK5 inhibitor and uses thereof” (HANMI PHARMACEUTICAL CO., LTD., priority 2016, dated 2021) are IC50 values, retold here.

The target in this experiment is T1, ALK5 kinase (Homo sapiens, UniProt P36897).
T1 construct: GST; purchased Thermo Fisher Scientific Solutions
T1 sequence (P36897 34-503): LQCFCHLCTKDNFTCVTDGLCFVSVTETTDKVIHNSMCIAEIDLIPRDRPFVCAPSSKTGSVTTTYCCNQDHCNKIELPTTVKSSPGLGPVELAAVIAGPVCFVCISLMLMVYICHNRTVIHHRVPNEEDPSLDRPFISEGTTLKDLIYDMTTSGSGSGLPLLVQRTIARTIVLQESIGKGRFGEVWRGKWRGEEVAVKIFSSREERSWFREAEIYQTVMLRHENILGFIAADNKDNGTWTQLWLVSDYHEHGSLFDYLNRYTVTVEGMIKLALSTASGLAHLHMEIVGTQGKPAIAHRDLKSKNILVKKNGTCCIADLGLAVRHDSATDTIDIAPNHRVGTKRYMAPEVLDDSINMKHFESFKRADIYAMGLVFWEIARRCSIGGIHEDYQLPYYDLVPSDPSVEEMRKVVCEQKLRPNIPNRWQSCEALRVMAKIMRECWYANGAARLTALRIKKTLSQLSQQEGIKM
The experiment can be described thus: Activity inhibition test on ALK5 enzyme (LanthaScreen Eu binding kinase assay). The following applies: kinase tracer 178, 60 minutes at room temperature. The protocol: For each of the compounds obtained in Examples 1 to 227, inhibitory activity against ALK5 kinase was measured.
For this, a LanthaScreen Eu binding kinase assay method was used, and ALK5 kinase, a kinase buffer, a kinase tracer 178, and a LanthaScreen Eu-GST binding antibody were all purchased from Thermo Fisher Scientific Solutions. Each of the compounds was made into a 10 mM DMSO solution, and diluted by 1/10 to a concentration of 1 μM to 0.0001 μM with an aqueous solution containing 4% DMSO. The test was performed in 384 well plates (well polystyrene low volume round-bottomed plates). First, 5 μL of the diluted compound solution was added, then 5 μL of the kinase/antibody mixture solution was introduced thereto, and 5 μL of the tracer was introduced thereto. Herein, these were added to each well so that the final kinase concentration became 5 nM, the final Eu-GST binding antibody concentration 2 nM, and the kinase tracer 178 concentration 10 nM, and the result was reacted in a stirrer for 60 minutes at room temperature. Then a fluorescence value was measured using a fluorescence meter (molecular device) ([…], 665 nm emission filter). Herein, as for the degree of compound activity to inhibit the kinase reaction, a phosphorylate rate was calculated from 0% to 100% with respect to a control group according to the protocol included in the kit, and a 50% inhibitory concentration (IC50) value was calculated by obtaining the x-axis concentration in the region where 50% activity was inhibited.
(In general: TR-FRET usually uses a lanthanide donor and a delayed reading to cut background.)

Turning to `Cc1cccc(-n2nc(C(=O)Nc3cccc(F)c3)cc2-c2ccc3ncsc3c2)n1` [Example 28, 5-(benzo[d]thiazol-6-yl)-N-(3-fluorophenyl)-1-(6-methylpyridin-2-yl)-1H-pyrazole-3-carboxyamide], the IC50 (commonly the concentration at which inhibition is half-maximal) came to 4.5 nM.

As for `Cc1cccc(-n2nc(C(=O)Nc3ccc(F)cc3)cc2-c2ccc3ncsc3c2)n1` [Example 29, 5-(benzo[d]thiazol-6-yl)-N-(4-fluorophenyl)-1-(6-methylpyridin-2-yl)-1H-pyrazole-3-carboxyamide], the 50% inhibitory concentration (IC50) worked out at 3.9 nM.

Consider `Cc1cccc(-n2nc(C(=O)Nc3ccc(F)c(F)c3)cc2-c2ccc3ncsc3c2)n1` [Example 30, 5-(benzo[d]thiazol-6-yl)-N-(3,4-difluorophenyl)-1-(6-methylpyridin-2-yl)-1H-pyrazole-3-carboxyamide], for which the IC50 came to 5.8 nM.

As to `Cc1cccc(-n2nc(C(=O)Nc3ccccc3Cl)cc2-c2ccc3ncsc3c2)n1` [Example 31, 5-(benzo[d]thiazol-6-yl)-N-(2-chlorophenyl)-1-(6-methylpyridin-2-yl)-1H-pyrazole-3-carboxyamide], the IC50 is > 100 nM.

`Cc1cccc(-n2nc(C(=O)Nc3cccc(Cl)c3)cc2-c2ccc3ncsc3c2)n1` [Example 32, 5-(benzo[d]thiazol-6-yl)-N-(3-chlorophenyl)-1-(6-methylpyridin-2-yl)-1H-pyrazole-3-carboxyamide] yielded an IC50 of 10 to 100 nM.

`Cc1cccc(-n2nc(C(=O)Nc3ccc(Cl)cc3)cc2-c2ccc3ncsc3c2)n1` [Example 33, 5-(benzo[d]thiazol-6-yl)-N-(4-chlorophenyl)-1-(6-methylpyridin-2-yl)-1H-pyrazole-3-carboxyamide] registered an IC50 of 10 to 100 nM.

Regarding `Cc1cccc(-n2nc(C(=O)Nc3ccc(Br)cc3)cc2-c2ccc3ncsc3c2)n1` [Example 34, 5-(benzo[d]thiazol-6-yl)-N-(4-bromophenyl)-1-(6-methylpyridin-2-yl)-1H-pyrazole-3-carboxyamide], the half-inhibitory concentration (IC50) is 10 to 100 nM.

Regarding `CSc1cccc(NC(=O)c2cc(-c3ccc4ncsc4c3)n(-c3cccc(C)n3)n2)c1` [Example 35, 5-(benzo[d]thiazol-6-yl)-1-(6-methylpyridin-2-yl)-N-(3-(methylthio)phenyl)-1H-pyrazole-3-carboxyamide], the half-inhibitory concentration (IC50) lay within 10 to 100 nM.

Turning to `CSc1ccc(NC(=O)c2cc(-c3ccc4ncsc4c3)n(-c3cccc(C)n3)n2)cc1` [Example 36, 5-(benzo[d]thiazol-6-yl)-1-(6-methylpyridin-2-yl)-N-(4-(methylthio)phenyl)-1H-pyrazole-3-carboxyamide], the 50% inhibitory concentration (IC50) was < 10 nM.

For `Cc1cccc(-n2nc(C(=O)Nc3ccc(SC4CC4)cc3)cc2-c2ccc3ncsc3c2)n1` [Example 37, 5-(benzo[d]thiazol-6-yl)-N-(4-(cyclopropylthio)phenyl)-1-(6-methylpyridin-2-yl)-1H-pyrazole-3-carboxyamide], the half-maximal inhibitory concentration (IC50) was 40 nM.

In turn, `Cc1cccc(-n2nc(C(=O)Nc3cccc([S+](C)[O-])c3)cc2-c2ccc3ncsc3c2)n1` (stereo not shown) [Example 38, 5-(benzo[d]thiazol-6-yl)-1-(6-methylpyridin-2-yl)-N-(3-(methylsulfinyl)phenyl)-1H-pyrazole-3-carboxyamide] returned an IC50 of 1.8 nM.

For `Cc1cccc(-n2nc(C(=O)Nc3ccc([S+](C)[O-])cc3)cc2-c2ccc3ncsc3c2)n1` (stereo not shown) [Example 39, 5-(benzo[d]thiazol-6-yl)-1-(6-methylpyridin-2-yl)-N-(4-(methylsulfinyl)phenyl)-1H-pyrazole-3-carboxyamide], the IC50 stood at 2.4 nM.

For `Cc1cccc(-n2nc(C(=O)Nc3cccc(S(C)(=O)=O)c3)cc2-c2ccc3ncsc3c2)n1` [Example 40, 5-(benzo[d]thiazol-6-yl)-1-(6-methylpyridin-2-yl)-N-(3-(methylsulfonyl)phenyl)-1H-pyrazole-3-carboxyamide], the half-maximal inhibitory concentration (IC50) was determined as 3.3 nM.

Take `Cc1cccc(-n2nc(C(=O)Nc3ccc(S(C)(=O)=O)cc3)cc2-c2ccc3ncsc3c2)n1` [Example 41, 5-(benzo[d]thiazol-6-yl)-1-(6-methylpyridin-2-yl)-N-(4-(methylsulfonyl)phenyl)-1H-pyrazole-3-carboxyamide]: the concentration for half-maximal inhibition (IC50) turned out to be 5.2 nM.

`CCCS(=O)(=O)c1ccc(NC(=O)c2cc(-c3ccc4ncsc4c3)n(-c3cccc(C)n3)n2)cc1` [Example 42, 5-(benzo[d]thiazol-6-yl)-1-(6-methylpyridin-2-yl)-N-(4-(propylsulfonyl)phenyl)-1H-pyrazole-3-carboxyamide] had an IC50 of 2.2 nM.

The compound `Cc1cccc(-n2nc(C(=O)Nc3ccc(S(=O)(=O)C4CC4)cc3)cc2-c2ccc3ncsc3c2)n1` [Example 43, 5-(benzo[d]thiazol-6-yl)-N-(4-(cyclopropylsulfonyl)phenyl)-1-(6-methylpyridin-2-yl)-1H-pyrazole-3-carboxyamide] yielded an IC50 of 4.4 nM.

In turn, `Cc1cccc(-n2nc(C(=O)Nc3ccc(S(C)(=O)=O)cc3F)cc2-c2ccc3ncsc3c2)n1` [Example 44, 5-(benzo[d]thiazol-6-yl)-N-(2-fluoro-4-(methylsulfonyl)phenyl)-1-(6-methylpyridin-2-yl)-1H-pyrazole-3-carboxyamide] yielded an IC50 of 13 nM.

With `Cc1cccc(-n2nc(C(=O)Nc3cccc(S(N)(=O)=O)c3)cc2-c2ccc3ncsc3c2)n1` [Example 45, 5-(benzo[d]thiazol-6-yl)-1-(6-methylpyridin-2-yl)-N-(3-sulfamoylphenyl)-1H-pyrazole-3-carboxyamide], the half-inhibitory concentration (IC50) was 2.4 nM.

On to `Cc1cccc(-n2nc(C(=O)Nc3ccc(S(N)(=O)=O)cc3)cc2-c2ccc3ncsc3c2)n1` [Example 46], for which the IC50 came out at 1.3 nM. Against the preceding compound, the IC50 is about 1.8-fold lower.

As to `CNS(=O)(=O)c1cccc(NC(=O)c2cc(-c3ccc4ncsc4c3)n(-c3cccc(C)n3)n2)c1` [Example 47, 5-(benzo[d]thiazol-6-yl)-1-(6-methylpyridin-2-yl)-N-(3-(N-methylsulfamoyl)phenyl)-1H-pyrazole-3-carboxyamide], the IC50 was 1.2 nM.

With `CNS(=O)(=O)c1ccc(NC(=O)c2cc(-c3ccc4ncsc4c3)n(-c3cccc(C)n3)n2)cc1` [Example 48, 5-(benzo[d]thiazol-6-yl)-1-(6-methylpyridin-2-yl)-N-(4-(N-methylsulfamoyl)phenyl)-1H-pyrazole-3-carboxyamide], the IC50 stood at 4.1 nM. This IC50 is about 3.4-fold higher than that of the compound before.

`Cc1cccc(-n2nc(C(=O)Nc3cccc(S(=O)(=O)NC4CC4)c3)cc2-c2ccc3ncsc3c2)n1` [Example 49, 5-(benzo[d]thiazol-6-yl)-N-(3-(N-cyclopropylsulfamoyl)phenyl)-1-(6-methylpyridin-2-yl)-1H-pyrazole-3-carboxyamide] had a half-inhibitory concentration (IC50) of 5.6 nM. The IC50 values of the last two compounds are within 1.5-fold of each other.

`Cc1cccc(-n2nc(C(=O)Nc3ccc(S(=O)(=O)NC4CC4)cc3)cc2-c2ccc3ncsc3c2)n1` [Example 50, 5-(benzo[d]thiazol-6-yl)-N-(4-(N-cyclopropylsulfamoyl)phenyl)-1-(6-methylpyridin-2-yl)-1H-pyrazole-3-carboxyamide] gave an IC50 of 6.6 nM. This IC50 and that of the compound before are within 1.5-fold of each other.

`Cc1cccc(-n2nc(C(=O)Nc3cccc(S(=O)(=O)N(C)C)c3)cc2-c2ccc3ncsc3c2)n1` [Example 51, 5-(benzo[d]thiazol-6-yl)-N-(3-(N,N-dimethylsulfamoyl)phenyl)-1-(6-methylpyridin-2-yl)-1H-pyrazole-3-carboxyamide] came in with an IC50 of 6.5 nM.

As for `Cc1cccc(-n2nc(C(=O)Nc3ccc(S(=O)(=O)N(C)C)cc3)cc2-c2ccc3ncsc3c2)n1` [Example 52, 5-(benzo[d]thiazol-6-yl)-N-(4-(N,N-dimethylsulfamoyl)phenyl)-1-(6-methylpyridin-2-yl)-1H-pyrazole-3-carboxyamide], the concentration for half-maximal inhibition (IC50) stood at 2.5 nM. Against the preceding compound, the IC50 is about 2.6-fold lower.

In turn, `Cc1cccc(-n2nc(C(=O)Nc3cccc(NS(C)(=O)=O)c3)cc2-c2ccc3ncsc3c2)n1` [Example 53, 5-(benzo[d]thiazol-6-yl)-1-(6-methylpyridin-2-yl)-N-(3-(methylsulfonamido)phenyl)-1H-pyrazole-3-carboxyamide] gave a 50% inhibitory concentration (IC50) of 2.4 nM.

Compound `Cc1cccc(-n2nc(C(=O)Nc3cccc(NS(=O)(=O)C4CC4)c3)cc2-c2ccc3ncsc3c2)n1` [Example 54, 5-(benzo[d]thiazol-6-yl)-N-(3-(cyclopropanesulfonamido)phenyl)-1-(6-methylpyridin-2-yl)-1H-pyrazole-3-carboxyamide] gave an IC50 of 2 nM.

`Cc1cccc(-n2nc(C(=O)Nc3ccc(NS(=O)(=O)C4CC4)cc3)cc2-c2ccc3ncsc3c2)n1` [Example 55, 5-(benzo[d]thiazol-6-yl)-N-(4-(cyclopropanesulfonamido)phenyl)-1-(6-methylpyridin-2-yl)-1H-pyrazole-3-carboxyamide] showed a 50% inhibitory concentration (IC50) of 4.2 nM.
